pIC50: −log10 of the molar value.

In the experiment the target is T1, c-kit autophosphorylation (Phospho c-Kit Tyr721) in HMC 1.1 (exon 11/13) cells, V654A (Homo sapiens, UniProt P10721, V560G/V654A).
T1 construct: endogenous in cells; host or cells: HMC 1.1 (exon 11/13) cells
T1 sequence (P10721 26-976 V560G/V654A): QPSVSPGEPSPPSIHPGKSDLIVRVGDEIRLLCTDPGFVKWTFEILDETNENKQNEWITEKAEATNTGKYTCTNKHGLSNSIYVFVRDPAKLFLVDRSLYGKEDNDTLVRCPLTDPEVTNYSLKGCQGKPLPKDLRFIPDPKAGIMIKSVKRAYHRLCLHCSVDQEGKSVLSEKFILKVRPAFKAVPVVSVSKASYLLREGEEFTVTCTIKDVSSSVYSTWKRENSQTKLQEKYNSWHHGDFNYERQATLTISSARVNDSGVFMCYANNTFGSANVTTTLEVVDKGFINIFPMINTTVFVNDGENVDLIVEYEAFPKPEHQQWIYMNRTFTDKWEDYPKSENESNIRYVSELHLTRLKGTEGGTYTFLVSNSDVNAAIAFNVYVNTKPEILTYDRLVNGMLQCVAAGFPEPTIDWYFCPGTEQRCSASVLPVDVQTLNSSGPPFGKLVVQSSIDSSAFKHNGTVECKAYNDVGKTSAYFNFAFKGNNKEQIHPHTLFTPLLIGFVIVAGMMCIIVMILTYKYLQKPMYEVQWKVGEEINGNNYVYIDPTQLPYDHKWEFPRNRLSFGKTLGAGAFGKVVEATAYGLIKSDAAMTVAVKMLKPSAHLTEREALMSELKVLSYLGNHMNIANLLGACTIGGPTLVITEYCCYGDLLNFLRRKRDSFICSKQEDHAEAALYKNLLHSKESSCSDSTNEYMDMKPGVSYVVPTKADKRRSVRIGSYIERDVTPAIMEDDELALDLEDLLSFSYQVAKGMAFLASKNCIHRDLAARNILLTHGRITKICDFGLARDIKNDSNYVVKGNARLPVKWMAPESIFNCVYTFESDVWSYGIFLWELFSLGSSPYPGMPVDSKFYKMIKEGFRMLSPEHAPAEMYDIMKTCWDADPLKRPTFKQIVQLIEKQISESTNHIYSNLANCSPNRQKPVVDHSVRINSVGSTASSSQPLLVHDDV
Nature of the experiment: pKIT Meso Scale Discovery (MSD) assay, inhibition of autophosphorylation of KIT, HMC1.1_V654A. It is filed as cell-based. As to conditions: Table 1, cell line not named for Table 1, b1056 names pKIT HMC1.1_V654A, read-out: Code (IC50 for inhibition of autophosphorylation of KIT, pKIT MSD assay). The method, boiled down:
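HMC1.1 cells were serum-starved for 4 h in serum-free, iron-free, phenol red-free IMDM, then treated with compound in dose-response for 90 min at 37 °C. Staurosporine and DMSO served as controls. Lysates were analysed by MSD electrochemiluminescence immunoassay for phospho-c-Kit Tyr721, and % inhibition of autophosphorylation was derived.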
Consider `CNC(=O)c1cnc(Nc2cc(N)nc(C(F)F)n2)cc1NCc1ccccc1` [Compound 92, 6-((6-amino-2-(difluoromethyl)pyrimidin-4-yl)amino)-4-(benzylamino)-N-methylnicotinamide], for which the pIC50 is 7.40 to 8.00.
With `CNC(=O)c1cnc(Nc2cc(N)nc(C(F)F)n2)cc1NC` [Compound 4, 6-((6-amino-2-(difluoromethyl)pyrimidin-4-yl)amino)-N-methyl-4-(methylamino)nicotinamide], the pIC50 is > 8.00.
Regarding `C[C@@H](CF)Oc1cc(Nc2cc(N)nc(C(F)F)n2)ncc1-c1cnn(C)c1` (single isomer, unassigned) [Compound 87, (S)-2-(difluoromethyl)-N4-(4-((1-fluoropropan-2-yl)oxy)-5-(1-methyl-1H-pyrazol-4-yl)pyridin-2-yl)pyrimidine-4,6-diamine or (R)-2-(difluoromethyl)-N4-(4-((1-fluoropropan-2-yl)oxy)-5-(1-methyl-1H-pyrazol-4-yl)pyridin-2-yl)pyrimidine-4,6-diamine], the negative-log IC50 (pIC50) was > 8.00.
Regarding `CNc1cc(Nc2cc(N)nc(C(F)F)n2)ncc1C(=O)NC(C)C` [Compound 29, 6-((6-amino-2-(difluoromethyl)pyrimidin-4-yl)amino)-N-isopropyl-4-(methylamino)nicotinamide], the pIC50 was > 8.00.
Regarding `COc1cc(Nc2cc(N)nc(C(F)F)n2)ncc1-c1cnn(C(F)(F)F)c1` [Compound 94, 2-(difluoromethyl)-N4-(4-methoxy-5-(1-(trifluoromethyl)-1H-pyrazol-4-yl)pyridin-2-yl)pyrimidine-4,6-diamine], the negative logarithm of the IC50 (pIC50) was 7.40 to 8.00.
Regarding `CCNc1cc(Nc2cc(N)nc(C(F)F)n2)ncc1C(=O)NCc1cocn1` [Compound 113, 6-((6-amino-2-(difluoromethyl)pyrimidin-4-yl)amino)-4-(ethylamino)-N-(oxazol-4-ylmethyl)nicotinamide], the pIC50 is > 8.00.
In the case of `CC(C)Oc1cc(Nc2cc(N)nc([C@H](C)F)n2)ncc1-c1cnn([C@@H]2CCOC2)c1` (single isomer, unassigned) [Compound 156, 2-((S)-1-fluoroethyl)-N4-(4-isopropoxy-5-(1-((R)-tetrahydrofuran-3-yl)-1H-pyrazol-4-yl)pyridin-2-yl)pyrimidine-4,6-diamine or 2-((S)-1-fluoroethyl)-N4-(4-isopropoxy-5-(1-((S)-tetrahydrofuran-3-yl)-1H-pyrazol-4-yl)pyridin-2-yl)pyrimidine-4,6-diamine], the negative-log IC50 (pIC50) was > 8.00.
`CNC(=O)c1cnc(Nc2cc(N)nc(CF)n2)cc1NC(C)CF` (single isomer, unassigned) [Compound 28, (R)-6-((6-amino-2-(fluoromethyl)pyrimidin-4-yl)amino)-4-((1-fluoropropan-2-yl)amino)-N-methylnicotinamide or (S)-6-((6-amino-2-(fluoromethyl)pyrimidin-4-yl)amino)-4-((1-fluoropropan-2-yl)amino)-N-methylnicotinamide]: the negative logarithm of the IC50 (pIC50) was < 7.40.
`CCNc1cc(Nc2cc(N)nc(C(F)F)n2)ncc1C(=O)NC` [Compound 12, 6-((6-amino-2-(difluoromethyl)pyrimidin-4-yl)amino)-4-(ethylamino)-N-methylnicotinamide]: the negative logarithm of the IC50 (pIC50) was > 8.00.
As to `CNC(=O)c1cnc(Nc2cc(N)nc(C(F)F)n2)cc1N[C@@H](C)C(F)F` [Compound 74, (S)-6-((6-amino-2-(difluoromethyl)pyrimidin-4-yl)amino)-4-((1,1-difluoropropan-2-yl)amino)-N-methylnicotinamide], the pIC50 is > 8.00.
Take `CNC(C)(C)Cn1cc(-c2cnc(Nc3cc(N)nc(C(F)F)n3)cc2OC(F)F)cn1` [Compound 193, N4-(4-(difluoromethoxy)-5-(1-(2-methyl-2-(methylamino)propyl)-1H-pyrazol-4-yl)pyridin-2-yl)-2-(difluoromethyl)pyrimidine-4,6-diamine]: the pIC50 is > 8.00.
As to `C[C@@H](CF)Nc1cc(Nc2cc(N)nc(C(F)F)n2)ncc1C(=O)NC12CC(CO)(C1)C2` [Compound 188, (S)-6-((6-amino-2-(difluoromethyl)pyrimidin-4-yl)amino)-4-((1-fluoropropan-2-yl)amino)-N-(3-(hydroxymethyl)bicyclo[1.1.1]pentan-1-yl)nicotinamide], the pIC50 is 7.40 to 8.00.
As to `COc1cc(Nc2cc(N)nc(C(F)F)n2)ncc1-c1cnn(CCN(C)CC(F)(F)F)c1` [Compound 199, 2-(difluoromethyl)-N4-(4-methoxy-5-(1-(2-(methyl(2,2,2-trifluoroethyl)amino)ethyl)-1H-pyrazol-4-yl)pyridin-2-yl)pyrimidine-4,6-diamine], the pIC50 was > 8.00.
Consider `CC(Oc1cc(Nc2cc(N)nc(C(F)F)n2)ncc1-c1cnn(C)c1)C(F)F` (stereo not shown) [Compound 128, 2-(difluoromethyl)-N4-(4-((1,1-difluoropropan-2-yl)oxy)-5-(1-methyl-1H-pyrazol-4-yl)pyridin-2-yl)pyrimidine-4,6-diamine], for which the pIC50 is > 8.00.
Turning to `CNC(=O)c1cnc(Nc2cc(N)nc(CF)n2)cc1NC1COC1` [Compound 19, 6-((6-amino-2-(fluoromethyl)pyrimidin-4-yl)amino)-N-methyl-4-(oxetan-3-ylamino)nicotinamide], the pIC50 is < 7.40.
With `N#CCNC(=O)c1cnc(Nc2cc(N)nc(C(F)F)n2)cc1NC1CC1` [Compound 54, 6-((6-amino-2-(difluoromethyl)pyrimidin-4-yl)amino)-N-(cyanomethyl)-4-(cyclopropylamino)nicotinamide] the figure was 7.40 to 8.00; with “6-((6-amino-2-(difluoromethyl)pyrimidin-4-yl)amino)-N-methyl-4-((4-methyltetrahydro-2H-pyran-4-yl)amino)nicotinamide [Compound 125]”, > 8.00.
`CNCCn1cc(-c2cnc(Nc3cc(N)nc(C(F)F)n3)cc2OC2CC2)cn1` [Compound 136, N4-(4-cyclopropoxy-5-(1-(2-(methylamino)ethyl)-1H-pyrazol-4-yl)pyridin-2-yl)-2-(difluoromethyl)pyrimidine-4,6-diamine]: the negative-log IC50 (pIC50) is > 8.00.
For the compound `Cn1cc(-c2cnc(Nc3cc(N)nc(C(F)F)n3)cc2OC2CCOC2)cn1` (stereo not shown) [Compound 106, 2-(difluoromethyl)-N4-(5-(1-methyl-1H-pyrazol-4-yl)-4-((tetrahydrofuran-3-yl)oxy)pyridin-2-yl)pyrimidine-4,6-diamine], the pIC50 is > 8.00.
The result for `Cn1cc(-c2cnc(Nc3cc(N)nc(C(F)F)n3)cc2OC2COC2)cn1` [Compound 77, 2-(difluoromethyl)-N4-(5-(1-methyl-1H-pyrazol-4-yl)-4-(oxetan-3-yloxy)pyridin-2-yl)pyrimidine-4,6-diamine] reads > 8.00; that for `CN[C@H](C)Cn1cc(-c2cnc(Nc3cc(N)nc(C(F)F)n3)cc2OC(F)(F)F)cn1` (single isomer, unassigned) [Compound 196, (R)-2-(difluoromethyl)-N4-(5-(1-(2-(methylamino)propyl)-1H-pyrazol-4-yl)-4-(trifluoromethoxy)pyridin-2-yl)pyrimidine-4,6-diamine or (S)-2-(difluoromethyl)-N4-(5-(1-(2-(methylamino)propyl)-1H-pyrazol-4-yl)-4-(trifluoromethoxy)pyridin-2-yl)pyrimidine-4,6-diamine], > 8.00; that for `CCNc1cc(Nc2cc(N)nc(C(F)F)n2)ncc1C(=O)NCc1ncco1` [Compound 114, 6-((6-amino-2-(difluoromethyl)pyrimidin-4-yl)amino)-4-(ethylamino)-N-(oxazol-2-ylmethyl)nicotinamide], 7.40 to 8.00.
As to `CCCNC(=O)c1cnc(Nc2cc(N)nc(C(F)F)n2)cc1NC1CC1` [Compound 62, 6-((6-amino-2-(difluoromethyl)pyrimidin-4-yl)amino)-4-(cyclopropylamino)-N-propylnicotinamide], the pIC50 was 7.40 to 8.00.
Consider `C[C@@H](CF)Nc1cc(Nc2cc(N)nc(C(F)F)n2)ncc1C(=O)NCc1ccccn1` [Compound 186, (S)-6-((6-amino-2-(difluoromethyl)pyrimidin-4-yl)amino)-4-((1-fluoropropan-2-yl)amino)-N-(pyridin-2-ylmethyl)nicotinamide], for which the pIC50 was > 8.00.
With `CNC(=O)c1cnc(Nc2cc(N)nc(C(F)F)n2)cc1NC1CCC1` [Compound 37, 6-((6-amino-2-(difluoromethyl)pyrimidin-4-yl)amino)-4-(cyclobutylamino)-N-methylnicotinamide], the pIC50 was > 8.00.
With `Nc1cc(Nc2cc(OC3CC3)c(-c3cnn(CCO)c3)cn2)nc(C(F)F)n1` [Compound 108, 2-(4-(6-((6-amino-2-(difluoromethyl)pyrimidin-4-yl)amino)-4-cyclopropoxypyridin-3-yl)-1H-pyrazol-1-yl)ethan-1-ol] the figure was > 8.00; with `C[C@H](CF)Nc1cc(Nc2cc(N)nc(C(F)F)n2)ncc1C(=O)NCc1cocn1` [Compound 177, (R)-6-((6-amino-2-(difluoromethyl)pyrimidin-4-yl)amino)-4-((1-fluoropropan-2-yl)amino)-N-(oxazol-4-ylmethyl)nicotinamide], 7.40 to 8.00.
Consider `CN[C@H](C)Cn1cc(-c2cnc(Nc3cc(N)nc(C(F)F)n3)cc2OC)cn1` (single isomer, unassigned) [Compound 118, (R)-2-(difluoromethyl)-N4-(4-methoxy-5-(1-(2-(methylamino)propyl)-1H-pyrazol-4-yl)pyridin-2-yl)pyrimidine-4,6-diamine or (S)-2-(difluoromethyl)-N4-(4-methoxy-5-(1-(2-(methylamino)propyl)-1H-pyrazol-4-yl)pyridin-2-yl)pyrimidine-4,6-diamine], for which the pIC50 is 7.40 to 8.00.

Values taken from patent publication US20250270190A1, “KIT INHIBITORS” (BLUEPRINT MEDICINES CORPORATION, priority 2022, published 2025).
